53 compounds from ChEMBL document CHEMBL6083234, “Discovery of novel 1,4-dicarbonylthiosemicarbazides as DNA gyrase inhibitors for the treatment of MRSA infection” (Eur J Med Chem, 2024) can be followed below.

Data set [1] has as its system Staphylococcus aureus. Kind of data set: Antibacterial activity against Staphylococcus aureus ATCC 29213 assessed as inhibition of bacterial growth incubated for 18 to 24 hrs by broth microdilution method. It is filed as functional. The following applies: time 18-24 hrs. A general note: Dilution methods test growth across graded concentrations, often in twofold steps.

Data set [2] concerns the target DNA gyrase (Staphylococcus aureus, UniProt P0A0K8+P20831). The data set can be described thus: Inhibition of Staphylococcus aureus DNA gyrase ATP hydrolysis activity using pBR322 DNA as substrate incubated for 30 mins in presence of ATP by ADP-Glo reagent based assay. The data set is classed as protein-complex assay. In general terms: ADP-Glo turns the ADP formed in a reaction into a luminescent signal.

A short description of data set [3]: Cytotoxicity against human HepG2 cells assessed as reduction in cell viability incubated for 48 hrs by CCK8 assay. The data set is classed as toxicity, cell-based. For orientation: Formazan colour is commonly taken as a measure of viable cells.
Data set [4] can be described thus: Selectivity index, ratio of CC50 for cytotoxicity against human HepG2 cells to MIC for antibacterial activity against Staphylococcus aureus ATCC 29213. The data set is classed as toxicity, cell-based. The following applies: read-out: Selectivity Index.
Data set [5] in a line: Cytotoxicity against HUVEC cells assessed as reduction in cell viability incubated for 48 hrs by CCK8 assay. It is filed as toxicity, cell-based. The following applies: human.
Data set [6] is described as follows: Selectivity index, ratio of CC50 for cytotoxicity against HUVEC cells to MIC for antibacterial activity against Staphylococcus aureus ATCC 29213. It is filed as toxicity, cell-based. The following applies: human, read-out: Selectivity Index.

Structures are written as SMILES. A value given as a limit tells only on which side of the number the result lay.

Sequence of DNA gyrase (P0A0K8 whole entry): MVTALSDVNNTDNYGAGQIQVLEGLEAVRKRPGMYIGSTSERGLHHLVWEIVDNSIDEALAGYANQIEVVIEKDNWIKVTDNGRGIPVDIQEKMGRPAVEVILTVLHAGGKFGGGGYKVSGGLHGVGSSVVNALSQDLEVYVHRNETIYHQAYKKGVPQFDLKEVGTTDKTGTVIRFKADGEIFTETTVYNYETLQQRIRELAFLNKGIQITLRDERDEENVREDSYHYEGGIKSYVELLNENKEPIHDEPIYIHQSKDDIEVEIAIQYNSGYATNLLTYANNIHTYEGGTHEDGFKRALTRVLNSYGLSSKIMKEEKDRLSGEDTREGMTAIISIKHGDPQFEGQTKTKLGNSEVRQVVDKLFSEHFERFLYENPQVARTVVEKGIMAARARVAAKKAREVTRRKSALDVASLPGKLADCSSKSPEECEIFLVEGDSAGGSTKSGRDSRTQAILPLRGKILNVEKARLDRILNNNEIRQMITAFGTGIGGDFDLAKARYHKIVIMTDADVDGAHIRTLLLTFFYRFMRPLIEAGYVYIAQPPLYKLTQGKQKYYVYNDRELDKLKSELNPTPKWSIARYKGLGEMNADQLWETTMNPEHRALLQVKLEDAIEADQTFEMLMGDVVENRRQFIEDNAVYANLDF
Sequence of DNA gyrase (P20831 whole entry): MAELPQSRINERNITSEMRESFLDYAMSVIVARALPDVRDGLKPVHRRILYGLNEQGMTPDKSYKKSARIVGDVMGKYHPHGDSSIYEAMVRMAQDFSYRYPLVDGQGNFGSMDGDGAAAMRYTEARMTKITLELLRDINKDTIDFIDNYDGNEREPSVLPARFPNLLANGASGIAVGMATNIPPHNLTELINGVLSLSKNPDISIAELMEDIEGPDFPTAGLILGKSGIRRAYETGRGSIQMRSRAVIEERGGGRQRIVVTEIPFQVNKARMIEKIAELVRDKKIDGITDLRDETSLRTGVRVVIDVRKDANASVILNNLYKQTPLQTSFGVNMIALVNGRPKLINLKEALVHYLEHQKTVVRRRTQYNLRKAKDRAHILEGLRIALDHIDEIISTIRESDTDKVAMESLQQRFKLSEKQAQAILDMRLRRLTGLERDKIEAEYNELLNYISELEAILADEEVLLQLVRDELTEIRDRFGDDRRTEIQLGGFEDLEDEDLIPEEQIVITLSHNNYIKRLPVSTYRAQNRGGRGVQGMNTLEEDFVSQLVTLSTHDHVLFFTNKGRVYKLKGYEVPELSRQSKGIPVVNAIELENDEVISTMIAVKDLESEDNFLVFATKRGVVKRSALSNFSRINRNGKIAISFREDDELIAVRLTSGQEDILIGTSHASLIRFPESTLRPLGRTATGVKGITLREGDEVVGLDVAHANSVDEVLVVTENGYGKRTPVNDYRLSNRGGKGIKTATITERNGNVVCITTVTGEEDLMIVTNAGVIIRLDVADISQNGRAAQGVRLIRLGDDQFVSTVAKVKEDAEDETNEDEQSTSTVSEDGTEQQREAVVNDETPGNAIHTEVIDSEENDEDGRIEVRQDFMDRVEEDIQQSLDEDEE

Take `CCCCCOc1ccc(C(=O)NNC(=S)NC(C)=O)c(OCCCCC)c1`: the MIC (usually the lowest concentration found to suppress growth) in data set [1] was over 100 µg/mL.

Take `CCCCCOc1ccc(C(=O)NNC(=S)NC(C)=O)cc1OCCCCC`: the minimal inhibitory concentration (MIC) in data set [1] was 6.25 µg/mL.

As to `CCC1CCC(c2ccc(C(=O)NNC(=S)NC(C)=O)cc2)CC1` (stereo not given), in data set [1], the MIC was 0.58 µM. The IC50 (as a rule, the midpoint of a concentration-inhibition curve) in data set [2] was 230 nM. For the same compound, the CC50 – broadly, the concentration at which the toxic effect on the cells reaches its halfway point – at 48 h stood at 26 nM in data set [3] and 67 nM in data set [5]. Besides, the selectivity ratio in data set [4] stood at 0.05; in data set [6], 0.12.

Consider `CCCOc1ccc(C(=O)NNC(=S)NC(C)=O)cc1`, for which, in data set [1], the minimal inhibitory concentration (MIC) was 6.25 µg/mL.

In the case of `CC(=O)O[C@H]1C(=O)[C@@]2(C)[C@H]([C@H](OC(=O)c3ccccc3)[C@]3(O)C[C@H](OC(=O)[C@H](O)[C@@H](NC(=O)c4ccccc4)c4ccccc4)C(C)=C1C3(C)C)[C@]1(OC(C)=O)CO[C@@H]1C[C@@H]2O` [PACLITAXEL], the figures for the CC50 at 48 h in data set [3] and in data set [5] were 10 nM and 16 nM, respectively.

Regarding `CCCCCOc1ccc(C(=O)NNC(=S)NC(=O)CCC)cc1`, the MIC in data set [1] stood at 12.5 µg/mL.

`CC(=O)NC(=S)NNC(=O)c1ccc(OCCCC(C)C)cc1`: the MIC in data set [1] stood at 3.12 µg/mL.

On to `CCCCCCOc1ccc(C(=O)NNC(=S)NCC)cc1`, for which, in data set [1], the MIC is over 100 µg/mL.

Take `CC(=O)NC(=S)NNC(=O)c1ccc([N+](=O)[O-])cc1`: in data set [1], the MIC is over 100 µg/mL.

On to `CCCCCCOc1ccc(-c2nnc(NC(C)=O)s2)cc1`, for which the MIC in data set [1] was over 100 µg/mL.

`CCCCCOc1ccc(C(=O)NNC(=S)NC(=O)Cc2ccccc2)cc1`: in data set [1], the MIC is over 100 µg/mL.

For `COCCCOc1ccc(C(=O)NNC(=S)NC(C)=O)cc1`, the MIC in data set [1] is over 100 µg/mL.

Regarding `CCCCCOc1ccc(C(=O)NNC(=S)NC(=O)C2CCCC2)cc1`, the MIC in data set [1] came out at 50 µg/mL.

For `CCCCCCOc1ccc(C(=O)N(C)NC(=S)NC(C)=O)cc1`, in data set [1], the minimum inhibitory concentration (MIC) is over 100 µg/mL.

Take `CC(=O)NC(=S)NNC(=O)c1ccc2ccccc2c1`: the MIC in data set [1] stood at 6.25 µg/mL.

With `CC(=O)NC(=S)NNC(=O)c1ccccc1O`, the minimum inhibitory concentration (MIC) in data set [1] was 50 µg/mL.

For `CCCCCOc1ccc(C(=O)NNC(=S)NC(=O)c2ccc(C(=O)OC)cc2)cc1`, in data set [1], the minimum inhibitory concentration (MIC) is over 100 µg/mL.

Take `CCCCCOc1ccc(C(=O)NNC(=S)NC(C)=O)c(C)c1`: the MIC in data set [1] is 3.12 µg/mL.

Take `CCCCCOc1cccc(C(=O)NNC(=S)NC(C)=O)c1`: the MIC in data set [1] is over 100 µg/mL.

Turning to `CCCCCCOc1ccc(-c2nnc(NC(C)=O)o2)cc1`, the MIC in data set [1] is over 100 µg/mL.

Take `CCCCCCOc1ccc(C(=O)NNC(N)=S)cc1`: the MIC in data set [1] was over 100 µg/mL.

On to `CCCCOc1ccc(C(=O)NNC(=S)NC(C)=O)cc1`, for which, in data set [1], the MIC worked out at 1.56 µg/mL.

Turning to `CCCCCOc1ccc(C(=O)NC(=S)NNC(C)=O)cc1`, the MIC in data set [1] is 3.12 µg/mL.

With `CCCCCOc1ccc(C(=O)NNC(=S)NC(C)=O)nc1`, the MIC in data set [1] came to 25 µg/mL.

In the case of `CCCCCOc1ccc(C(=O)NNC(=S)NC(=O)c2cccs2)cc1`, the MIC in data set [1] is 3.12 µg/mL.

As for `CCCCCOc1ccc(C(=O)NNC(=S)NC(=O)CCC(=O)OC)cc1`, in data set [1], the MIC was determined as 12.5 µg/mL.

For the compound `CCCCCOc1ccc(C(=O)NNC(=S)NC(=O)CC)cc1`, the MIC in data set [1] is 1.56 µg/mL.

`CC(=O)NC(=S)NNC(=O)c1ccc(O)c(O)c1`: the MIC in data set [1] came out at 100 µg/mL.

Consider `CCCCCOc1ccc(C(=O)NNC(=S)NC(=O)c2ccc(C(=O)O)cc2)cc1`, for which the minimum inhibitory concentration (MIC) in data set [1] was over 100 µg/mL.

For the compound `CC(=O)NC(=S)NNC(=O)c1ccc(Oc2ccccc2)cc1`, the MIC in data set [1] was determined as 3.12 µg/mL.

Take `CC(=O)NC(=S)NNC(=O)c1ccc(N2CCOCC2)cc1`: the MIC in data set [1] was 100 µg/mL.

Turning to `CCCCCOc1ccc(CCC(=O)NNC(=S)NC(C)=O)cc1`, in data set [1], the MIC is over 100 µg/mL.

For the compound `CCC(=O)NC(=S)NNC(=O)c1ccc(OC)cc1`, in data set [1], the minimal inhibitory concentration (MIC) came to 25 µg/mL.

In the case of `CCCCCOc1ccc(C(=O)NNC(=S)NC(=O)CCC(=O)O)cc1`, the MIC in data set [1] is 50 µg/mL.

Take `CCCCCOc1ccc(C(=O)NNC(=S)NC(=O)C2CC2)cc1`: the MIC in data set [1] amounted to 6.25 µg/mL.

As for `CCC(=O)NC(=S)NNC(=O)c1ccccc1O`, the minimal inhibitory concentration (MIC) in data set [1] came to 50 µg/mL.

In the case of `CC(=O)NC(=S)NNC(=O)c1ccccc1`, the MIC in data set [1] stood at 50 µg/mL.

With `CC(=O)NC(=S)NNC(=O)c1ccc(-c2ccccc2)cc1`, the MIC in data set [1] was 1.56 µg/mL.

As for `CCCCCCCCCCCOc1ccc(C(=O)NNC(=S)NC(C)=O)cc1`, the MIC in data set [1] was 100 µg/mL.

Turning to `CCCCCOc1ccc(C(=O)NNC(=S)NC(=O)C(C)C)cc1`, in data set [1], the MIC came out at 12.5 µg/mL.

For `CCCCCCOc1ccc(CNNC(=S)NCC)cc1`, the MIC in data set [1] was over 100 µg/mL.

In the case of `CC(=O)NC(=S)NNC(=O)c1cccc(-c2ccccc2)c1`, in data set [1], the MIC amounted to 3.12 µg/mL.

For `CC(=O)NC(=S)NNC(=O)c1ccc(OC2CCCCC2)cc1`, the MIC in data set [1] turned out to be 1.56 µg/mL.

Turning to `CCCCCCOc1ccc(C(=O)NNC(=S)NC(C)=O)cc1`, the MIC in data set [1] was 1.56 µg/mL. The 50% inhibitory concentration (IC50) in data set [2] turned out to be 1010 nM.

As for `CCCCCOc1ccc(CC(=O)NNC(=S)NC(C)=O)cc1`, in data set [1], the MIC turned out to be 25 µg/mL.

As to `CCCCCOc1ccc(C(=O)NNC(=S)NS(C)(=O)=O)cc1`, the MIC in data set [1] is over 100 µg/mL.

Turning to `Cc1ccc(C(=O)NNC(=S)NC(=O)CC(C)C)cc1`, the minimal inhibitory concentration (MIC) in data set [1] was 12.5 µg/mL.

Turning to `CC(=O)NC(=S)NNC(=O)c1ccc(C2CCCCC2)cc1`, the MIC in data set [1] amounted to 1.22 µM. Further, in data set [2], the IC50 was 1890 nM. In addition, the CC50 at 48 h in data set [3] is 120 nM; in data set [5], 790 nM. The figures for the selectivity ratio in data set [4] and in data set [6] were 0.1 and 0.65, respectively.

For `CCCCCOc1ccc(C(=O)NNC(=S)NC(C)=O)cc1O`, in data set [1], the MIC was 25 µg/mL.

Turning to `CCC(=O)NC(=S)NNC(=O)c1ccccc1`, the MIC in data set [1] came out at 50 µg/mL.

Consider `CC(=O)NC(=S)NNC(=O)c1ccc(C2CC2)cc1`, for which the MIC in data set [1] was found to be 3.12 µg/mL.

In the case of `CCCCCCOc1ccc(C(=O)NNC(=O)NC(C)=O)cc1`, the MIC in data set [1] came to 100 µg/mL.

`CCCCCCOc1ccc(C(=O)NN(C)C(=S)NC(C)=O)cc1`: the MIC in data set [1] was over 100 µg/mL.
